Laboratory results reported in patent US9422290B2, “Triazolopyridazine” (Boehringer Ingelheim International GmbH, priority 2012, dated 2016).

Molecular target: BRD4-BD1 (Homo sapiens (Human), UniProt O60885)
Assay: BRD4-H4 tetraacetylated peptide inhibition AlphaScreen
Type: binding
Conditions: 15 nM GST-BRD4-BD1 (aa 44-168), 15 nM biotinylated Acetyl-Histone H4 (Lys5, 8, 12, 16) peptide
Procedure: Compounds are diluted in serial dilution 1:5 in assay buffer from 10 mM stock in DMSO (100 μM start concentration) in white OptiPlate-384 (PerkinElmer). […] Subsequently, 6 μl of premixed AlphaLISA Glutathione Acceptor Beads and AlphaScreen Streptavidin Donor Beads from PerkinElmer (in assay buffer at a concentration of 10 μg/ml each) are added and the samples are incubated for 30 min at RT in the dark (shaking 300 rpm). Afterwards, the signal is measured in a PerkinElmer Envision HTS Multilabel Reader using the AlphaScreen protocol from PerkinElmer. […] Negative control values are entered as low basis value when using the software GraphPad Prism for calculations. Furthermore, a positive control (probe molecule JQ1+ with protein/peptide mix) is pipetted. Determination of IC50 values are carried out using GraphPad Prism 3.03 software (or updates thereof).

| IC50 [µM] | Compound |
| --- | --- |
| 0.003 | Cc1nnc2c(NC3CCN(C)CC3)cc(N(C)Cc3ccccc3)nn12 [Example I-1, N6-Benzyl-3,N6-dimethyl-N8-(1-methyl-piperidin-4-yl)-[1,2,4]triazolo[4,3-b]pyridazine-6,8-diamine] |
| 0.083 | Cc1nnc2c(NC3CCOCC3)cc(N(C)Cc3ccccc3)nn12 [Example I-2] |
| 0.067 | Cc1nnc2c(N[C@H]3CCOC3)cc(N(C)Cc3ccccc3)nn12 [Example I-3] |
| 0.025 | Cc1nnc2c(N[C@@H]3CCOC3)cc(N(C)Cc3ccccc3)nn12 [Example I-4] |
| 0.083 | CNc1cc(N(C)Cc2ccccc2)nn2c(C)nnc12 [Example I-5] |
| 0.074 | CNc1cc(N(C)Cc2ccc(F)cc2)nn2c(C)nnc12 [Example I-6] |
| 0.01 | Cc1nnc2c(NC3CCN(C)CC3)cc(-c3cnn(C)c3Cc3ccccc3)nn12 [II-1, [6-(5-Benzyl-1-methyl-1H-pyrazol-4-yl)-3-methyl-[1,2,4]triazolo[4,3-b]pyridazin-8-yl]-(1-methyl-piperidin-4-yl)-amine] |
| 0.117 | Cc1nnc2c(NC3CCN(C)CC3)cc(-c3ccnn3Cc3ccccc3)nn12 [II-2] |
| 0.003 | Cc1nnc2c(NC3CCN(C)CC3)cc(-c3[nH]c4ccccc4c3Cc3ccccc3)nn12 [II-3] |
| 0.037 | Cc1nnc2c(NC3CCN(C)CC3)cc(-c3c(Cc4ccccc4)c4ccccc4n3C)nn12 [II-4] |
| 0.105 | Cc1nnc2c(NC3CCN(C)CC3)cc(-c3cc4ccccc4n3Cc3ccccc3)nn12 [II-5, [6-(1-Benzyl-1H-indol-2-yl)-3-methyl-[1,2,4]triazolo[4,3-b]pyridazin-8-yl]-(1-methyl-piperidin-4-yl)-amine] |
| 0.008 | COCCN1CCC(Nc2cc(-c3cnn(C)c3Oc3ccccc3)nn3c(C)nnc23)CC1 [II-6] |
| 0.008 | Cc1nnc2c(NC3CCN(C)CC3)cc(-c3cnn(C)c3Oc3ccccc3)nn12 [II-7] |
| 0.004 | COCCN1CCC(Nc2cc(-c3cn(C)nc3Cc3ccccc3)nn3c(C)nnc23)CC1 [II-8] |
| 0.003 | Cc1nnc2c(NC3CCN(C)CC3)cc(-c3cn(C)nc3Cc3ccccc3)nn12 [II-9] |
| 0.038 | CNc1cc(-c2cn(C)nc2Cc2ccccc2)nn2c(C)nnc12 [II-10] |
| 0.064 | Cc1cc(-c2cn(C)nc2Cc2ccccc2)nn2c(C)nnc12 [II-11] |
| 0.051 | Cc1nnc2c(Cl)cc(-c3cn(C)nc3Cc3ccccc3)nn12 [II-12, 3-benzyl-4-{8-chloro-3-methyl-[1,2,4]triazolo[4,3-b]pyridazin-6-yl}-1-methyl-1H-pyrazole] |
| 2 | CSc1cc(-c2cn(C)nc2Cc2ccccc2)nn2c(C)nnc12 [II-13] |

| IC50 [µM] | Compound |
| --- | --- |
| 0.026 | CNc1cc(-c2cnn(C)c2Oc2ccccc2)nn2c(C)nnc12 [II-14] |
| 0.029 | CNc1cc(-c2cn(C)nc2Oc2ccccc2)nn2c(C)nnc12 [II-15] |
| 0.711 | Cc1nnc2c(NC(C)C)cc(-c3cn(C(C)C)nc3Cc3ccccc3)nn12 [II-16] |
| 0.14 | Cc1nnc2c(NC(C)C)cc(-c3cnn(C)c3Oc3ccccc3)nn12 [II-17] |
| 0.031 | Cc1nnc2c(NC(C)C)cc(-c3cn(C)nc3Oc3ccccc3)nn12 [II-18] |
| 0.105 | Cc1nnc2c(NC(C)C)cc(-c3cn(C)nc3Cc3ccccc3)nn12 [II-19] |
| 0.043 | Cc1nnc2c(NC(C)C)cc(-c3cn(C)nc3Oc3ccccn3)nn12 [II-20] |
| 0.072 | CNc1cc(-c2cn(C)nc2Oc2ccccn2)nn2c(C)nnc12 [II-21] |
| 0.061 | CC(=O)N1CCC(Nc2cc(N(C)Cc3ccccc3)nn3c(C)nnc23)CC1 [III-1, 1-{4-[6-(Benzyl-methyl-amino)-3-methyl-[1,2,4]triazolo[4,3-b]pyridazin-8-ylamino]-piperidin-1-yl}-ethanone] |
| 0.003 | COCCN1CCC(Nc2cc(N(C)Cc3ccccc3)nn3c(C)nnc23)CC1 [III-3, N6-Benzyl-N8-[1-(2-methoxy-ethyl)-piperidin-4-yl]-3,N6-dimethyl-[1,2,4]triazolo[4,3-b]pyridazine-6,8-diamine] |
| 0.04 | Cc1nnc2c(NC3CCN(C=O)CC3)cc(N(C)Cc3ccccc3)nn12 [III-4] |
| 0.037 | Cc1nnc2c(NC3CCN(S(=O)(=O)CCCN(C)C)CC3)cc(N(C)Cc3ccccc3)nn12 [III-5] |
| 0.033 | Cc1nnc2c(NC3CCN(S(=O)(=O)C4CCNC4)CC3)cc(N(C)Cc3ccccc3)nn12 (centres unmarked) [III-6] |
| 0.057 | Cc1nnc2c(NC3CCN(S(=O)(=O)C4CCNCC4)CC3)cc(N(C)Cc3ccccc3)nn12 [III-7] |
| 0.032 | Cc1nnc2c(NC3CCN(S(=O)(=O)CCN)CC3)cc(N(C)Cc3ccccc3)nn12 [III-8] |
| 0.04 | Cc1nnc2c(NC3CCN(S(=O)(=O)C4CCN(C)CC4)CC3)cc(N(C)Cc3ccccc3)nn12 [III-9] |
| 0.044 | Cc1nnc2c(NC3CCN(S(=O)(=O)C4CCN(C)C4)CC3)cc(N(C)Cc3ccccc3)nn12 (centres unmarked) [III-10] |
| 0.039 | Cc1nnc2c(NC3CCN(S(=O)(=O)CCN(C)C)CC3)cc(N(C)Cc3ccccc3)nn12 [III-11] |

| Compound | IC50 [µM] |
| --- | --- |
| CCN1CCC(Nc2cc(N(C)Cc3ccccc3)nn3c(C)nnc23)CC1 [III-2, N6-Benzyl-N8-(1-ethyl-piperidin-4-yl)-3,N6-dimethyl-[1,2,4]triazolo[4,3-b]pyridazine-6,8-diamine] | 0.003 |
